The text below walks through data of patent publication US20240287076A1, “COMPOUNDS FOR TARGETING DEGRADATION OF BRUTON'S TYROSINE KINASE” (BIOGEN MA INC., priority 2021, published 2024).

Bounds are passed on as bounds.

T1 sequence (Q06187 whole entry, the tested form may be a part): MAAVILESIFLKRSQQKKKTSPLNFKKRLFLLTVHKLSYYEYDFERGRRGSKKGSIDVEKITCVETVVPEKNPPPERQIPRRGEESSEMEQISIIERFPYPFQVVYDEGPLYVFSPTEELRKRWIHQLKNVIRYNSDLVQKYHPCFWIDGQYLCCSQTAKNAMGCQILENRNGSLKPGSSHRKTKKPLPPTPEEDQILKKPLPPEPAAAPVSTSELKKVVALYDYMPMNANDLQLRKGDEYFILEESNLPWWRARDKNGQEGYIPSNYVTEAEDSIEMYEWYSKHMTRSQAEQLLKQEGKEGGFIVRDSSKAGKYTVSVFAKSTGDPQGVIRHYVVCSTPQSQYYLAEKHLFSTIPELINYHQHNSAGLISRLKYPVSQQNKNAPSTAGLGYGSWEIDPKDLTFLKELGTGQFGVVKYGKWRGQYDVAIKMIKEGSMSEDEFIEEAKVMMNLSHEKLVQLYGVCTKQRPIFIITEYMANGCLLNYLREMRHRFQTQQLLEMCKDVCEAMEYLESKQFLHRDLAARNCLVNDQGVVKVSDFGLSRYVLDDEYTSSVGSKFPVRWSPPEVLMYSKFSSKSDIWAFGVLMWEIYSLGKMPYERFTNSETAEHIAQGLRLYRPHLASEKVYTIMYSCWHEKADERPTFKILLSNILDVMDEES

This test addresses T1, BTK (Homo sapiens, UniProt Q06187).
T1 construct: The GM01501.3 cell line endogenously expresses BTK with a HiBiT fusion tag via CRISPR knock-in at its C-terminal region; endogenous in cells; host or cells: GM01501.3 (GM01501 cells engineered by CRISPR knock-in of HiBiT at the BTK locus)
The test is described as follows: BTK degradation assay using the HiBiT Method (Nano-Glo HiBiT Lytic Assay, GM01501.3 cells). It is filed as cell-based. To be noted: HiBiT Degradation on GM01501.3 BTK @ 6 hours. In outline:
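Degradation read-out: HiBiT luminescence after lytic reagent addition, giving DC50. Compounds dosed from 10 μM in 11 half-log steps (duplicate) onto GM01501.3 cells, whose endogenous BTK carries a C-terminal HiBiT knock-in tag; 6 h exposure, 37 °C, 5% CO2.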
Take `Cc1cc(-c2ncnn3cc(-c4cn5c(CN6CCC(c7ccc(C8CCC(=O)NC8=O)cc7)CC6)cnc5s4)cc23)ccc1CNC(=O)c1noc(C(C)(C)C)n1` (centres unmarked) [Example 210, 5-(tert-butyl)-N-(4-(6-(5-((4-(4-(2,6-dioxopiperidin-3-yl)phenyl)piperidin-1-yl)methyl)imidazo[2,1-b]thiazol-2-yl)pyrrolo[2,1-f][1,2,4]triazin-4-yl)-2-methylbenzyl)-1,2,4-oxadiazole-3-carboxamide]: the DC50 lay in the range of 100 to 500 nM.

Molecule `Cc1cc(-c2ncnn3cc(-c4ccc(CN5CCCC(c6ccc(NC7CCC(=O)NC7=O)cc6)C5)cc4)cc23)ccc1CNC(=O)c1noc(C(C)(C)C)n1` (centres unmarked) [Example 7, 5-tert-butyl-N-[[4-[6-[4-[[3-[4-[(2,6-dioxo-3-piperidyl)amino]phenyl]-1-piperidyl]methyl]phenyl]pyrrolo[2,1-f][1,2,4]triazin-4-yl]-2-methyl-phenyl]methyl]-1,2,4-oxadiazole-3-carboxamide] had a DC50 of under 100 nM.

The molecule `Cn1nc(N2CCC(=O)NC2=O)c2ccc(C3CCN(Cc4ccc(-c5cc6nccc(-c7ccc(CNC(=O)c8noc(C(C)(C)C)n8)c(F)c7)n6n5)cc4)CC3)cc21` [Example 164, 5-tert-butyl-N-[[4-[2-[4-[[4-[3-(2,4-dioxohexahydropyrimidin-1-yl)-1-methyl-indazol-6-yl]-1-piperidyl]methyl]phenyl]pyrazolo[1,5-a]pyrimidin-7-yl]-2-fluoro-phenyl]methyl]-1,2,4-oxadiazole-3-carboxamide] showed a DC50 of under 100 nM.

Consider `Cc1cc(-c2ncnn3cc(CCCCN4CCN(c5ccc(C6CCC(=O)NC6=O)cn5)CC4)cc23)ccc1CNC(=O)c1noc(C(C)(C)C)n1` (centres unmarked) [Example 279, 5-(tert-butyl)-N-(4-(6-(4-(4-(5-(2,6-dioxopiperidin-3-yl)pyridin-2-yl)piperazin-1-yl)butyl)pyrrolo[2,1-f][1,2,4]triazin-4-yl)-2-methylbenzyl)-1,2,4-oxadiazole-3-carboxamide], for which the half-maximal degradation concentration (DC50) was under 100 nM.

Turning to `Cc1cc(-c2ncnn3cc(CCN4CCC(c5ccc6c7c(cccc57)C(=O)N6C5CCC(=O)NC5=O)CC4)cc23)ccc1CNC(=O)c1noc(C(C)(C)C)n1` (centres unmarked) [Example 274, 5-(tert-butyl)-N-(4-(6-(2-(4-(1-(2,6-dioxopiperidin-3-yl)-2-oxo-1,2-dihydrobenzo[cd]indol-6-yl)piperidin-1-yl)ethyl)pyrrolo[2,1-f][1,2,4]triazin-4-yl)-2-methylbenzyl)-1,2,4-oxadiazole-3-carboxamide], the DC50 was under 100 nM.

`Cc1cc(-c2ncnn3cc(-c4ccc5sc(CN6CCC(c7ccc(C8CCC(=O)NC8=O)cc7)CC6)cc5n4)cc23)ccc1CNC(=O)c1noc(C(C)(C)C)n1` (centres unmarked) [Example 218, 5-(tert-butyl)-N-(4-(6-(2-((4-(4-(2,6-dioxopiperidin-3-yl)phenyl)piperidin-1-yl)methyl)thieno[3,2-b]pyridin-5-yl)pyrrolo[2,1-f] [1,2,4]triazin-4-yl)-2-methylbenzyl)-1,2,4-oxadiazole-3-carboxamide] gave a half-maximal degradation concentration (DC50) of 100 to 500 nM.

The molecule `Cc1cc(-c2ncnn3cc(CC[C@@H](F)CN4CCC(c5ccc(C6CCC(=O)NC6=O)cc5)CC4)cc23)ccc1CNC(=O)c1noc(C(C)(C)C)n1` (single isomer, unassigned) [Example 286] yielded a DC50 of under 100 nM.

The molecule `Cc1ccc(C(=O)NCc2ccc(-c3ncnn4cc(-c5ccc(CN6CCC(c7ccc(NC8CCC(=O)NC8=O)cc7)CC6)cc5)cc34)cc2C)nc1` (centres unmarked) [Example 87, N-[[4-[6-[4-[[4-[4-[(2,6-dioxo-3-piperidyl)amino]phenyl]-1-piperidyl]methyl]phenyl]pyrrolo[2,1-f][1,2,4]triazin-4-yl]-2-methyl-phenyl]methyl]-5-methyl-pyridine-2-carboxamide] displayed a DC50 of under 100 nM.

Consider `Cc1cc(-c2ncnn3cc(-c4ccc(CN5CCC(c6ccc(NC7CCC(=O)NC7=O)cc6)C(F)(F)C5)cc4)cc23)ccc1CNC(=O)c1noc(C(C)(C)C)n1` (centres unmarked) [Example 240, 5-(tert-butyl)-N-(4-(6-(4-((4-(4-((2,6-dioxopiperidin-3-yl)amino)phenyl)-3,3-difluoropiperidin-1-yl)methyl)phenyl)pyrrolo[2,1-f] [1,2,4]triazin-4-yl)-2-methylbenzyl)-1,2,4-oxadiazole-3-carboxamide], for which the DC50 is under 100 nM.

For the molecule `Cc1cc(-c2ncnn3cc(CCN4CCC(c5ccc6c(N7CCC(=O)NC7=O)noc6c5)CC4)cc23)ccc1CNC(=O)c1noc(C(C)(C)C)n1` [Example 272, 5-(tert-butyl)-N-(4-(6-(2-(4-(3-(2,4-dioxotetrahydropyrimidin-1(2H)-yl)benzo[d]isoxazol-6-yl)piperidin-1-yl)ethyl)pyrrolo[2,1-f][1,2,4]triazin-4-yl)-2-methylbenzyl)-1,2,4-oxadiazole-3-carboxamide], the DC50 is over 1000 nM.

`Cc1cc(-c2ncnn3cc(-c4ccc(CN5CCC(c6ccc(NC7CCC(=O)NC7=O)cc6)CC5)cc4)cc23)ccc1CNC(=O)c1ccc(C(F)(F)F)cn1` (centres unmarked) [Example 88, N-[[4-[6-[4-[[4-[4-[(2,6-dioxo-3-piperidyl)amino]phenyl]-1-piperidyl]methyl]phenyl]pyrrolo[2,1-f][1,2,4]triazin-4-yl]-2-methyl-phenyl]methyl]-5-(trifluoromethyl)pyridine-2-carboxamide] showed a DC50 of under 100 nM.

Molecule `Cc1cc(-c2ncnn3cc(-c4ccc(CCN5CCC(c6ccc(C7CCC(=O)NC7=O)cc6)CC5)cc4)cc23)ccc1CNC(=O)c1noc(C(C)(C)C)n1` (centres unmarked) [Example 52, 5-tert-butyl-N-[[4-[6-[4-[2-[4-[4-(2,6-dioxo-3-piperidyl)phenyl]-1-piperidyl]ethyl]phenyl]pyrrolo[2,1-f][1,2,4]triazin-4-yl]-2-methyl-phenyl]methyl]-1,2,4-oxadiazole-3-carboxamide] registered a DC50 of under 100 nM.

`CC(C)(C)c1nc(C(=O)NCc2ccc(-c3ncnn4cc(-c5ccc(CN6CCc7ccc(OC8CCC(=O)NC8=O)cc7CC6)cn5)cc34)cc2F)no1` (centres unmarked) [Example 230, 5-(tert-butyl)-N-(4-(6-(5-((7-((2,6-dioxopiperidin-3-yl)oxy)-1,2,4,5-tetrahydro-3H-benzo[d]azepin-3-yl)methyl)pyridin-2-yl)pyrrolo [2,1-f][1,2,4]triazin-4-yl)-2-fluorobenzyl)-1,2,4-oxadiazole-3-carboxamide] came in with a 50% degradation concentration (DC50) of under 100 nM.

On to `Cc1cc(-c2ncnn3cc(N4CCN(C(=O)CCCCC5CCN(C(=O)c6ccc(OC7CCC(=O)NC7=O)cc6)CC5)CC4)cc23)ccc1CNC(=O)c1noc(C(C)(C)C)n1` (centres unmarked) [Example 182, 5-(tert-butyl)-N-(4-(6-(4-(5-(1-(4-((2,6-dioxopiperidin-3-yl)oxy)benzoyl)piperidin-4-yl)pentanoyl)piperazin-1-yl)pyrrolo[2,1-f][1,2,4]triazin-4-yl)-2-methylbenzyl)-1,2,4-oxadiazole-3-carboxamide], for which the DC50 was under 100 nM.

As for `Cc1cc(-c2ncnn3cc(-c4ccc(CN5CCC(c6ccc(NC7CCC(=O)NC7=O)cc6)CC5)cc4)cc23)ccc1CNC(=O)c1nc(C(C)(C)C)no1` (centres unmarked) [Example 79, 3-tert-butyl-N-[[4-[6-[4-[[4-[4-[(2,6-dioxo-3-piperidyl)amino]phenyl]-1-piperidyl]methyl]phenyl]pyrrolo[2,1-f][1,2,4]triazin-4-yl]-2-methyl-phenyl]methyl]-1,2,4-oxadiazole-5-carboxamide], the 50% degradation concentration (DC50) was under 100 nM.

`CC(C)(C)c1nc(C(=O)NCc2ccc(-c3ncnn4cc(-c5ccc(OCCN6CCC(c7ccc(NC8CCC(=O)NC8=O)nc7)CC6)cc5)cc34)cc2F)no1` (centres unmarked) [Example 110, 5-tert-butyl-N-[[4-[6-[4-[2-[4-[6-[(2,6-dioxo-3-piperidyl)amino]-3-pyridyl]-1-piperidyl]ethoxy]phenyl]pyrrolo[2,1-f][1,2,4]triazin-4-yl]-2-fluoro-phenyl]methyl]-1,2,4-oxadiazole-3-carboxamide]: the half-maximal degradation concentration (DC50) is under 100 nM.

Regarding `Cc1cc(-c2ncnn3cc(N4CCN(C(=O)CCc5ccccc5CNC(=O)c5ccc(OC6CCC(=O)NC6=O)cc5)CC4)cc23)ccc1CNC(=O)c1noc(C(C)(C)C)n1` (centres unmarked) [Example 183, 5-(tert-butyl)-N-(4-(6-(4-(3-(2-((4-((2,6-dioxopiperidin-3-yl)oxy)benzamido)methyl)phenyl)propanoy 1)piperazin-1-yl)pyrrolo[2,1-f][1,2,4]triazin-4-y1)-2-methylbenzyl)-1,2,4-oxadiazole-3-carboxamide], the DC50 was under 100 nM.

In turn, `CC(C)(C)c1nc(C(=O)NCc2ccc(-c3ncnn4cc(CCN5CCC(c6ccc(NC7CCC(=O)NC7=O)cc6)CC5)cc34)cc2F)no1` (centres unmarked) [Example 120, 5-tert-butyl-N-[[4-[6-[2-[4-[4-[(2,6-dioxo-3-piperidyl)amino]phenyl]-1-piperidyl]ethyl]pyrrolo[2,1-f][1,2,4]triazin-4-yl]-2-fluoro-phenyl]methyl]-1,2,4-oxadiazole-3-carboxamide] came in with a DC50 of under 100 nM.

`Cc1cc(-c2ncnn3cc(-c4ccc(CN5CCC(c6ccc(NC7CCC(=O)NC7=O)cc6)CC5)cc4)cc23)ccc1CNC(=O)c1noc(C(C)(C)C)n1` (single isomer, unassigned; isomer 2) [Example 3, 5-tert-butyl-N-[[4-[6-[4-[[4-[4-[(2,6-dioxo-3-piperidyl)amino]phenyl]-1-piperidyl]methyl]phenyl]pyrrolo[2,1-f][1,2,4]triazin-4-yl]-2-methyl-phenyl]methyl]-1,2,4-oxadiazole-3-carboxamide isomer 2] registered a 50% degradation concentration (DC50) of under 100 nM.

The molecule `Cc1cc(-c2ncnn3cc(CN(C)CCN4CCC(c5ccc(C6CCC(=O)NC6=O)cc5)CC4)cc23)ccc1CNC(=O)c1noc(C(C)(C)C)n1` (centres unmarked) [Example 125, 5-tert-butyl-N-[[4-[6-[[2-[4-[4-(2,6-dioxo-3-piperidyl)phenyl]-1-piperidyl]ethyl-methyl-amino]methyl]pyrrolo[2,1-f][1,2,4]triazin-4-yl]-2-methyl-phenyl]methyl]-1,2,4-oxadiazole-3-carboxamide] gave a half-maximal degradation concentration (DC50) of under 100 nM.
